This is an account of results in US12318365B2, “Inhibition of dipeptide repeat proteins” (ALS Therapy Development Institute, priority 2019, dated 2025).

The target in experiment [1] is T1, Recombinant PRMT1 protein (Homo sapiens, UniProt Q99873).
T1 construct: purchased Active Motif 31411
In words: In-vitro arginine methylation assay with recombinant PRMT1 and SAM. In kind it is biochemical. Particulars: 37 degrees Celsius, 2 hours, no methylation without PRMT1 or SAM. Here is the method: To assess interaction between PRMT1 and GR15, (SEQ ID NO: 1) an in-vitro methylation assay system was developed. This system consists of a mixture of recombinant PRMT1 enzyme, S-(5′-Adenosyl)-L-methionine iodide, (SAM) as a methyl donor, and potential substrate of PRMT1 activity. For this experiment, 11 tubes were prepared, each containing various amount of the following components; • Recombinant PRMT1 protein (Active Motif, Cat. 31411) • S-(5′-Adenosyl)-L-methionine iodide, (SAM) (Sigma-Aldrich Cat. A4377) • GR15(SEQ ID NO: 1) • PR15(SEQ ID NO: 2) • SOD1 from human erythrocytes (S9636-1KU)
These constituents were mixed in a 0.5 ml flat-capped tubes (Thermo Fisher Scientific, AB0350) according to Table 4 (all values are in microliters (μl)).
Once all tubes were prepared, each tube was gently tapped to ensure mixture, and the tubes were placed in an incubator at 37 degrees Celsius for 2 hours. After 2 hours, the reaction mixture was stopped with the addition of 10 μl of NuPage LDS Sample Buffer (Thermo Fisher Scientific, NP0007). The tubes were gently tapped to ensure mixture, and then boiled for 5 minutes in a 95 degrees Celsius water bath. […]
The gel was then transferred using the iBlot apparatus and an iBlot 2 Nitrocellulose Mini Stack (Thermo Fisher Scientific, IB23002). […] Following wash steps, the membrane was read on the LI-COR Odyssey Classic Imaging System.

For experiment [2], the system named is asymmetrical arginine methylation of NSC-34 cells. In words: Cellular asymmetric arginine methylation (800/700 fluorescence readout) in NSC-34 cells. In kind it is cell-based, Mouse. As to the method: On Day 0, NSC-34 Cells were plated in 48 wells of a 96 well plate, and CHO cells were plated in the other 48 wells of the same 96-well plate. NSC-34 cells were plated in DMEM/High glucose media. CHO cells were plated in Ham's F-12K (Kaighn's) Medium. Both cell lines were incubated overnight to reach approximately 50% confluency.
On Day 1, 24 wells of the NSC-34 cells and 24 wells of the CHO cells were treated with the following concentrations of MS023: 1 μM, 3 μM, 6 μM, 10 μM, 30 μM, and 60 μM. The cells were then incubated overnight.
On Day 2, 18 wells of the untreated NSC-34 cells and 18 wells of the untreated CHO cells were treated with the same concentrations of MS023 as those on Day 1. This left 6 wells of each cell line that never received MS023. Once MS023 was added, the cells were incubated overnight.
On Day 3, all media in the 96-well plate was removed and the cells were fixed with 3.7% Paraformaldehyde (PFA). Cells were then washed and permeabilized with 1×PBS/0.1% Triton X-100.
After removing the PBS/Triton wash, Odyssey Blocking Buffer (LI-COR, 927-40100) was applied to all wells and the plate sat at room temperature with moderate shaking for 90 minutes. After 90 minutes, the blocking buffer was removed and the cells were treated with a 1:500 dilution of the Anti-Asymmetric Di-Methyl Arginine Motif primary antibody (Cell Signaling Technology, #13522). Incubation with the primary antibody continued overnight at 4 degrees Celsius with no shaking.
On Day 4, the primary antibody solution was removed from the plate, and the cells were washed with 1×PBS/0.1% Tween 20. After washing, cells were given a secondary antibody mixture containing a 1:1000 dilution of IRDye 800 CW Anti-Rabbit antibody (LI-COR, 926-32211) and a 1:500 dilution of Cell Tag 700 Stain (LI-COR, 926-41090). The secondary antibody mixture remained on cells for 60 minutes with gentle shaking and protected from light.
(§1) After 60 minutes, the secondary antibody mixture was removed and the cells were again washed with 1×PBS/0.1% Tween 20. All wash buffer was then removed, and the plate was gently patted dry to remove excess solution. The plate was then read on the LI-COR Odyssey Classic Imaging System which provides results based on fluorescence. In this experiment, fluorescence occurred as a result of cellular, asymmetric arginine methylation. MS023 was given to cells for either 24 or 48 hours, with expectation for it to reduce cellular, asymmetric arginine methylation. Cell number per well was accounted for using the Cell Tag 700 Stain, which fluorescently labels total protein levels in a cell. To this effect, fluorescence from asymmetrical arginine methylation per well (800) was divided by fluorescence from the total protein level per well (700) to produce an outcome of 800/700.
On Day 1, 24 wells of the NSC-34 cells and 24 wells of the CHO cells were treated with the following concentrations of MS049: 0.2 μM, 1 μM, 2 μM, 10 μM, 20 μM, and 100 μM. The cells were then incubated overnight.
On Day 2, 18 wells of the untreated NSC-34 cells and 18 wells of the untreated CHO cells were treated with the same concentrations of MS049 as those on Day 1. This left 6 wells of each cell line that never received MS049. Once MS049 was added, the cells were incubated overnight.
as §1, with “MS049” for “MS023”, “To this effect, fluorescence from asymmetrical arginine methylation per well (800) was divided by fluorescence from the total protein level per well (700) to produce an outcome of 800/700.” left out

No end group written: not given here.

T1 sequence (Q99873 whole entry): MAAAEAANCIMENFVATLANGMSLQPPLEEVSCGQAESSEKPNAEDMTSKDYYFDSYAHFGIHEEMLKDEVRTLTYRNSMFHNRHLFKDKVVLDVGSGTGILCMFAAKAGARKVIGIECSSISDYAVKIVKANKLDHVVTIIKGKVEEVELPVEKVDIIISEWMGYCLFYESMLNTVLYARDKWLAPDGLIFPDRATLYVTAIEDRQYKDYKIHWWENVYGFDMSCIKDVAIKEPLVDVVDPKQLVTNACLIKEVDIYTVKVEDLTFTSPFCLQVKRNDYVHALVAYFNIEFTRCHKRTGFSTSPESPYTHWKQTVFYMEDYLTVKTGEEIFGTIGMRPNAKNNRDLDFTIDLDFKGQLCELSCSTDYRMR

With GRGRGRGRGRGRGRGRGRGRGRGRGRGRGR [GR15], the “asymmetric methylation of the peptide as substrate (anti-H4R3me2a detection)” value in experiment [1] is “is asymmetrically methylated by PRMT1”.

In the case of `CC(C)Oc1ccc(-c2c[nH]cc2CN(C)CCN)cc1` [MS023], the “decrease of asymmetrical arginine methylation” value in experiment [2] (24 hour treatment, 1 μM, vs untreated cells) is “approximately 13%”; in experiment [2] (24 hour treatment, 60 μM), about 45%; in experiment [2] (48 hour treatment, 1 μM), about 33%; in experiment [2] (48 hour treatment, 60 μM), about 75%.
